Drawing on patent EP0637588A1, “ACTIVE OXYGEN INHIBITOR COMPOSITION” (SHISEIDO COMPANY LIMITED, priority 1993, dated 1994), this text covers inhibition for one compound.

The assay deals with polymorphonuclear leukocyte (PMNs). Kind of assay: Suppressing action on production of active oxygen from neutrophils (OPZ-stimulated, FCLA dependent chemiluminescence). Type of assay: cell-based, white Japanese rabbit. Particulars: Oryctolagus cuniculus, PMNs stimulated by opsonized zymosan (OPZ), 37°C, read-out: Suppressing Action on Production of Active Oxygen (Suppressive Rate %). As for the experimental part:
A 400 mL amount of physiological saline solution containing 0.2% glycogen was administered by drip into the abdominal cavity of a white Japanese rabbit having about 3 kg body weight without anesthesia. After 16 hours, 400 ml of sterilized physiological saline solution was administered, the cavity was massaged well, then the ascites was sampled. This was centrifuged at 100 × g to obtain a precipitate which was then suspended in a Hanks Balanced Salt Solution (HBSS) and adjusted to 5 x 10⁵ cells/mL. This was used as the polymorphonuclear leukocyte (PMNs) fraction. The action on the production of active oxygen by opsonized zymosan (OPZ) was studied as follows: To PMNs (480 µl) were added 3,7-dihydro-6-[4-[2-(N'-(5-fluoresceinyl)thioureid)ethoxy]phenyl]-2-methylimidazo[1,2-a]pyradine-3-on·sodium salt (FCLA) (2 µM) and various concentrations of test compounds. The resulting mixture was incubated at 37°C for 10 minutes, OPZ was added in an amount of 5 µL, and then the FCLA dependent chemiluminescence was measured using a photon counter (made by BertHold of Germany) under a constant temperature of 37°C along with the elapse of time.

Structures are written as SMILES.

In the case of `O=C1O[C@H]([C@@H](O)CO)C(O)=C1O` [Ascorbic acid], the inhibition at 0.1 µM (Concentration 0.1 µM) worked out at 20.1%. Where the note is “Concentration 1.0 µM”, the inhibition at 1 µM was 51.7%. Further, the inhibition at 10 µM (Concentration 10 µM) came to 86.8%.
